Measured values from patent US10172915B2, “Methods and compositions for activation of sirtuins with Annexin A1 peptides” (Duke University, priority 2013, dated 2019).
No end group written: not given here.

Tests used:
[1] = tested on: rat coronary ligation models; conditions: cited from earlier work
[2] = tested on: ventricular contractile function ex vivo; conditions: cited from earlier work
NF-κB p65 subunit = assay: NF-κB p65 acetylation and NF-κB activity in DHCA rats; assay type: in vivo, rat
Protocol: FIG. 18. Increased SIRT1 expression with ANXA1sp treatment is also associated with reduced acetylation of NF-κB p65 subunit (at lysine 310 residue) following DHCA in rats. Rats underwent 1 hour DHCA at 18° C. and received either vehicle or ANXA1sp (2 mg/kg, iv) followed by 6 hours reperfusion. Levels of acetylated NF-κB p65 were determined in left ventricular myocardium tissue lysates by Western blot. Results presented as mean±SD (n=4), *p<0.001. DHCA, deep hypothermic circulatory arrest; P65-Ac(K310), lysine 310 acetylated NF-κB p65 subunit. GAPDH used as loading control.
(§1) Separate groups of animals underwent 60 minutes of DHCA (18° C.) with a similar treatment design, with animals randomly assigned to sham, CPB/DHCA (Vehicle), DHCA+ANXA1sp (ANXA1sp), or DHCA+scrambled peptide (scrPEP). All rats were subjected to 60 minutes DHCA at 18° C. and received either vehicle (1% DMSO saline), ANXA1sp (total 2 mg/kg), or scrPEP (total 2 mg/kg) iv 1 h before CPB and 1 h after reperfusion (FIG. 10C). Sham operated animals were only cannulated/without CPB/DHCA as baseline control. At 3, 6, and 24 h of post-perfusion, heart and serum samples were harvested. Blood samples were collected and stored at −80° C. until analysis. A small portion of heart tissue from each animal was immediately fixed in 10% buffered formalin, embedded in paraffin, and sectioned for immunostaining, confocal colocalization microscopy, and apoptotic TUNEL staining. Myocardial whole-tissue lysates were obtained at the end of each experiment according to the manufacturer's protocol (Affymetrix). The remaining heart tissues were stored at −80° C. FIG. 10 depicts a diagram of the rat surgical model and schematics of the experimental protocols.

SIRT3 [3] = assay: Myocardial SIRT3 in DHCA rats (Western blot, confocal microscopy); assay type: in vivo, rat; conditions: for Expression (44-kDa) and activation (28-kDa) of myocardial SIRT3: 60 min DHCA at 18° C., 2 mg/kg iv, 3 hours post-perfusion, p<0.05 vs vehicle; for SIRT3 level and mitochondrial localization in rat myocardium (confocal): 60 min DHCA, 3 h reperfusion
Protocol: (§2) Proteins were separated by electrophoresis on SDS-PAGE and then transferred onto PVDF-Plus membrane (Millipore). After being blocked with 5% milk, the immunoblots were probed with appropriate antibodies to SIRT3 (Cell Signaling or Abcam), MPP (Santa Cruz), MnSOD, P-AMPK, COXIV, GAPDH (Cell Signaling), and caspase-3 (Cell Signaling, MA) overnight at 4° C. followed by incubation with the corresponding secondary antibodies at room temperature for 1 h. The blots were visualized with the SuperSignal West Dura Extended Duration Substrate (Thermo Scientific) by a gel imaging system (Alpha Innotech).
as §1
Confocal studies were performed as described previously. Paraffin sections were deparaffinized using xylene and descending grades of ethanol, pretreated with microwave irradiation (350 W, for 5 min in 200 ml of 0.1M Citrate buffer, pH 6.0). Tissue sections were incubated with rabbit monoclonal IgG anti-SIRT3 (Cell Signaling) and mouse monoclonal IgG anti-COXIV (Cell Signaling) at 4° C. overnight. After washing, tissue sections were incubated with Alexa555 conjugated donkey anti-mouse IgG and Alexa488 conjugated goat anti-rabbit IgG (Molecular Probes) for 1 h at RT. Images were acquired with a confocal microscope (Zeiss Invert 510 Microscope). The control experiments were performed using mouse IgG and/or rabbit IgG.

[4] = tested on: mitochondrial protein lysine-acetylation; assay: Mitochondrial protein lysine acetylation in ARVCs after OGD/reoxygenation; assay type: cell-based, rat; conditions: ARVCs following OGD/reoxygenation
Protocol: (§3) After 24 h incubation, ARVCs were pre-treated with known concentrations of ANXA1sp or scrPEP in growth medium for 1 h, and subjected to 2 h oxygen-glucose-deprivation (OGD: DMEM no glucose, 85% N2/10% H2/5% CO2) in a OGD station chamber/Anaerobic System (Farma Scientific), followed by reoxygenation with 10 μM ANXA1sp or scrPEP in growth medium for 3, 6, and 24 h in a 37° C. and 5% CO2 growth chamber, respectively.

[5] = tested on: AMP-activated protein kinase (AMPK); assay: AMPK phosphorylation in myocardium of DHCA rats; assay type: in vivo, rat; conditions: 60 min DHCA, 3 h reperfusion
Protocol: (§4) FIG. 16. […] Results presented as mean±SD (n=5), *P<0.05 and ^#P<0.01. P-AMPK, phosphorylated AMPK. GAPDH used as loading control.
as §1

[6] = tested on: adult rat ventricular cardiomyocytes with SIRT3 siRNA; assay: siRNA knock-down of SIRT3 in ARVCs with simulated IR, rescue; assay type: cell-based; conditions: simulated ischemia-reperfusion
Protocol: ARVC siRNA transfection: after 24 h of incubation with AW Medium (Cellutron Cat #M-8034) without antibiotics, ARVCs were transfected with a specific SIRT3-siRNA or a scrambled RNA (scrRNA) as control, according to manufacturer's protocol (Santa Cruz). Transfection efficiency was estimated by Western blotting of the target protein (A). ARVC, adult rat ventricular cardiomyocytes; OGD, oxygen-glucose deprivation; scrR, scrambled RNA; siR, SIRT3 siRNA; SP, ANXA1sp; V, vehicle control; scrR+V, scramble RNA with vehicle control; scrR+SP, scramble RNA with ANXA1sp; siR+V, SIRT3 siRNA with vehicle control; siR+SP, SIRT3 siRNA with ANXA1sp; cTnI, cardiac troponin I measured in supernatant. Results presented as mean±SD (n=3). GAPDH used as loading control.

[7] = tested on: rats rendered acutely hyperglycemic, cardioplegic arrest; assay: Rat CPB/CA model in acutely hyperglycemic rats; assay type: in vivo; conditions: blood glucose>300 mg/dl, Dextrose 25%, 5 gm/kg
Protocol: Because of the known effects of hyperglycemia to blunt cardioprotective mechanisms, the effects of ANXA1sp were further tested in rats rendered acutely hyperglycemic (blood glucose>300 mg/dl) through perioperative administration of Dextrose (25%, 5 gm/kg). […] Physiological parameters during the conduct of CPB/CA were similar between treatment groups.

myocardial levels of ATP = assay: Myocardial ATP levels in DHCA rats; assay type: in vivo, rat; conditions: 60 min DHCA, 3 h reperfusion
Protocol: as §4
(§5) Blood samples were collected from each rat at 24 h after CPB/DHCA. Samples were immediately cooled to 4° C. and centrifuged at 3,000 rpm for 10 minutes at 4° C. Serum was collected and stored at −80° C. until assay. Whole cell lysate from heart tissues was obtained according to manufacturer's instruction (Panomics) and used for measurement of pro-inflammatory cytokines IL-6, TNFα and MPO by an ELISA method (Thermo Scientific). Cellular levels of ATP were measured by ELISA (Abeam).

cellular levels of ATP = assay: Cellular ATP levels in ARVCs after OGD/reoxygenation; assay type: cell-based, rat
Protocol: as §3, §5

[8] = tested on: AMP-activated protein kinase (AMPK); assay: AMPK phosphorylation in ARVCs after OGD/reoxygenation; assay type: cell-based, rat; conditions: 2 h OGD, 3 h reoxygenation
Protocol: as §3, §2

reactive oxygen species = assay: Reactive oxygen species in hearts of DHCA rats (ELISA); assay type: in vivo, rat; conditions: 60 min DHCA, 6 h reperfusion
Protocol: (§6) FIG. 15. Increased SIRT3 activity with ANXA1sp treatment is associated with reduced protein lysine acetylation in left ventricular myocardial lysates from rats following 60 min DHCA and 6 h reperfusion (panel A). This included deacetylation of MnSOD (known to increase its reactive oxygen species scavenging activity). Acetylated proteins were immunoprecipitated with anti-acetyl lysine antibody, and deacetylated MnSOD levels were assessed in the supernatant via Western blot (panel B). […] Results presented as mean±SD (n=5/group), *P<0.05. anti-Ac-K, acetylated lysine antibody; IP, immuno-precipitation; WB, Western blot; ROS, reactive oxygen species; MnSOD, manganese superoxide dismutase.
(§7) Separate groups of animals underwent 60 minutes of DHCA (18° C.) with a similar treatment design, with animals randomly assigned to sham, CPB/DHCA (Vehicle), DHCA+ANXA1sp (ANXA1sp), or DHCA+scrambled peptide (scrPEP). All rats were subjected to 60 minutes DHCA at 18° C. and received either vehicle (1% DMSO saline), ANXA1sp (total 2 mg/kg), or scrPEP (total 2 mg/kg) iv 1 h before CPB and 1 h after reperfusion (FIG. 10C). Sham operated animals were only cannulated/without CPB/DHCA as baseline control. At 3, 6, and 24 h of post-perfusion, heart and serum samples were harvested. Blood samples were collected and stored at −80° C. until analysis. […]

SIRT3 [9] = assay: SIRT3 expression in ARVCs after OGD/reoxygenation (Western blot, confocal microscopy); assay type: cell-based, rat
Protocol: as §3, §2
Confocal studies were performed as described previously. MitoTraker Deep Red FM (Invitrogen) was added into culture medium to make the final concentration of 0.4 μM and incubated at 37° C. for 45 min. After being washed, fixed, permeabilized, and blocked, rabbit monoclonal IgG anti-SIRT3 (Abcam) was added at 4° C. for overnight. Cells were subsequently incubated with Alexa-488 conjugated goat anti-rabbit IgG (Molecular Probes) for 1 h at RT. Images were acquired with a confocal microscope (Zeiss Invert 510 Microscope).

[10] = tested on: rats, deep hypothermic circulatory arrest; assay: Rat model of deep hypothermic circulatory arrest (DHCA), myocardial injury; assay type: in vivo; conditions: 60 min DHCA
Protocol: as §1
The following endpoints were assessed: plasma cTnI and heart-type fatty acid binding protein (HFABP, ELISA, Life Diagnosis); myocardial apoptosis as levels of cleaved caspase-3 (Western blot) and TUNEL assays (Roche); and echocardiographic left ventricular function. Myocardial levels of TNFα, IL-6, and myeloperoxidase (MPO) were analyzed by ELISA. SIRT3 and cytochrome c were measured in isolated mitochondria by Western blot.
Blood samples were collected from each rat at 24 h after CPB/DHCA. […] Cellular levels of ATP were measured by ELISA (Abeam).
TUNEL assay was performed using the In Situ Cell Death Detection Kit (Roche Molecular Biochemicals) according to manufacturer's protocol. […] The reaction was terminated with stop solution and fluorescent apoptotic signal was detected using a fluorescence microscope (Zeiss LSM 510 inverted confocal). Ten fields of each tissue section were randomly chosen and a total of 50 cells per field were counted. […]

[11] = tested on: protein lysine acetylation; assay: Protein lysine acetylation in left ventricular myocardial lysates of DHCA rats; assay type: in vivo, rat; conditions: 60 min DHCA, 6 h reperfusion
Protocol: as §6, §7

Substance: Ac-Ala-Met-Val-Ser-Glu-Phe-Leu-Lys-Gln-Ala-Trp-Phe-Ile-Glu-Asn-Glu-Glu-Gln-Glu-Tyr-Val-Gln-Tyr-Val-Lys (Ac-AMVSEFLKQAWFIENEEQEYVQYVK) [Ac2-26, 25mer peptide derived from annexin 1, commercially available]
- Neutrophil dependent myocardial necrosis [1]: inhibits neutrophil dependent myocardial necrosis
- Post-ischemic recovery of ventricular contractile function [2]: improves post-ischemic recovery of ventricular contractile function

Substance: Ac-Gln-Ala-Trp [ANXA1sp]
- Acetylation of NF-κB p65 (K310) (NF-κB p65 subunit; 1 hour DHCA, 2 mg/kg iv, 6 hours reperfusion): attenuated acetylation of NF-kB p65
- NF-κB transcriptional activity (NF-κB p65 subunit; DHCA rats): suppressed NF-κB transcriptional activity
- NF-κB-mediated gene expression of TNFα (NF-κB p65 subunit; DHCA rats): significantly down-regulated
- Expression (44-kDa) and activation (28-kDa) of myocardial SIRT3 (SIRT3 [3]): significantly restored expression and activation of SIRT3
- SIRT3 level and mitochondrial localization in rat myocardium (confocal) (SIRT3 [3]): robustly increased SIRT3 and was predominantly localized in the mitochondria
- Protein acetylation [4]: significant reduction in protein acetylation
- Phosphorylation of AMPK (P-AMPK) in left ventricular myocardial lysates [5]: increased phosphorylation of AMP-activated protein kinase
- Rescue of increased cell necrosis and apoptosis after SIRT3 knock down [6]: partially rescued
- Hyperglycemic exacerbation of myocardial injury and inflammation [7]: significantly attenuated
- Myocardial levels of ATP (myocardial levels of ATP): increased myocardial levels of ATP
- ATP concentrations (cellular levels of ATP): increased ATP concentrations
- Phosphorylation of AMPK [8]: increased phosphorylation of AMPK
- Cellular levels of reactive oxygen species in hearts (reactive oxygen species): decreased cellular levels of reactive oxygen species
- SIRT3 full-length and short form proteins in cell lysates (SIRT3 [9]; ARVCs after OGD/reoxygenation, Western blot): significantly increased SIRT3 in both full-length and short form proteins
- SIRT3 expression in isolated mitochondria (SIRT3 [9]; ARVCs subjected to OGD): increased SIRT3 expression in isolated mitochondria
- SIRT3 in mitochondria by confocal microscopy (SIRT3 [9]; cultured ARVCs, 10 μM, 2 h OGD, 3 h reoxygenation): significantly increased in mitochondria
- Cleaved caspase-3 activity by Western blot [10]: significantly decreased
- Myocardial apoptosis by TUNEL staining ([10]; 24 h post-reperfusion): significantly decreased myocardial apoptosis
- Serum cTnI (ELISA) ([10]; multiple reperfusion time points): significantly decreased
- Protein acetylation in myocardial tissue homogenates [11]: significant reduction of protein acetylation

Substance: Ac-W^10Q^11A^12 [scrPEP, reference compound]
- Expression (44-kDa) and activation (28-kDa) of myocardial SIRT3 (SIRT3 [3]): had no such effects
- SIRT3 level and mitochondrial localization in rat myocardium (confocal) (SIRT3 [3]): has no such effects
